Bridge positions count the residues as written; N and C are the ends. Ends that are not written are not given here.
Tests used:
[1] = tested on: HT29 CEA overexpressing cells; assay: Complement-dependent cytotoxicity (CDC) assay, CytoTox 96; type: cell-based; details: highest value corrected to 100%
Protocol: (§1) FIG. 6: CDC reaction in vitro. Effects of the mimotope induced antibodies in mediating complement-dependent cytotoxicity. The reaction was determined against the CEA positive cell line HT 29 and against the CEA negative cell line SW 480. Mouse immune sera in different concentrations were tested on the two cell lines. Sera from CEA-MAM immunized mice were used 1:50 (black columns; 1) and 1:100 (white column; 2). The antibody Col-1 (3), the isotype control antibodies IgG2a (4) and IgM (5) were used as negative controls.
(§2) Complement-dependent cytotoxicity (CDC) and antibody-dependent-cytotoxicity (ADCC) effectivity of the antibodies induced by mimotope vaccination were measured with the CytoTox 96 Nonradioactive Cytotoxicity assay (Promega, Madison, Wis.). HT29 CEA overexpressing cells were used as positive target cells. SW480 CEA-negative colon cancer cells served as a negative target control cell line. The number of both target cells was optimized to 2×10^5 cells/ml. For CDC reactions (FIG. 6), pooled fifth immune sera were diluted 1:50 (1) or 1:100 (2) in CytoTox 96 assay medium. Additionally, the antibody Col-1 (3), an IgG2a (4) and an IgM (5) antibody (Sigma, Vienna, Austria) served as negative controls. […] All assay procedures and readouts were done as described in the manufacturers description. […] The results of the cytotoxicity was calculated as follows: […]

[2] = tested on: HT29 CEA overexpressing cells; assay: Antibody-dependent cytotoxicity (ADCC) assay, CytoTox 96; type: cell-based; details: pooled fifth immune sera of immunized mice diluted 1:50; naive BALB/c spleen cells as effector cells
Protocol: (§3) FIG. 7: ADCC reaction in vitro. Effects of the antibody-dependent cytotoxicity. The reaction was determined against the CEA positive cell line HT 29 and against the CEA negative cell line SW 480. The CEA-MAP serum was used 1:50 (black columns; 1). The mice immunized with a control-MAP (2) or alum alone (3) and the Col-1 antibody (4) were used as negative controls.
as §2, with “controls. Spleen cells of naïve BALB/c mice were prepared by mashing the spleen and lysing the erythrocytes with ammonium chloride and used as effector cells.” for “controls.”

[3] = tested on: SW480 CEA-negative colon cancer cells; assay: Cytotoxicity assay on CEA-negative control cell line; type: cell-based; details: sera of immunized mice
Protocol: as §1, §3
Complement-dependent cytotoxicity (CDC) and antibody-dependent-cytotoxicity (ADCC) effectivity of the antibodies induced by mimotope vaccination were measured with the CytoTox 96 Nonradioactive Cytotoxicity assay (Promega, Madison, Wis.). HT29 CEA overexpressing cells were used as positive target cells. […] All assay procedures and readouts were done as described in the manufacturers description. […] The results of the cytotoxicity was calculated as follows: […]

[4] = tested on: CEA antigen binding to anti-CEA antibody Col-1; assay: Mimicry test, competitive ELISA on coated CEA antigen with Col-1; set-up: species or system human; details: phages at 5*10^10, 1*10^10, 1*10^9 particles per ml, simultaneously with Col-1
Protocol: FIG. 3: Mimicry analysis in ELISA competition assay. Coated CEA antigen is detected by Col-1 antibody, rendering a maximal signal of 1,4. Simultaneous incubation was done with titrated phage clones (white columns highest, grey: medium, black: least concentration of phage clones). Bound Col-1 was detected with anti-mouse IgG-peroxidase labelled. X-axis: clone names, Y-axis: colour intensity at OD450-630 nm.
The CEA antigen (human purified; Sigma, St. Louis) was used for coating ELISA plates. After blocking and washing, mimotopes phages were added to wells in three concentrations (5*10^10, 1*10^10, 1*10^9 particles per ml) simultaneously with antibody Col-1. In a final step, bound Col-1 antibody was detected by a peroxidase-labeled anti-mouse antibody. TMB substrate (BD Biosciences, San Diego, Calif.) was added for development of the colour and signal intensity measured in ELISA reader at OD450-630. […] This assay evidenced that selected mimotopes are mimics of the Col-1 epitope on CEA antigen.

[5] = biological target: CEA antigen (human purified; Sigma, St. Louis) (human) (UniProt P06731); assay: ELISA, CEA coated, bound Col-1 detected with anti-mouse IgG-peroxidase (FIG. 3)
Sequence of UniProt P06731 (P06731 35-685 limits assumed): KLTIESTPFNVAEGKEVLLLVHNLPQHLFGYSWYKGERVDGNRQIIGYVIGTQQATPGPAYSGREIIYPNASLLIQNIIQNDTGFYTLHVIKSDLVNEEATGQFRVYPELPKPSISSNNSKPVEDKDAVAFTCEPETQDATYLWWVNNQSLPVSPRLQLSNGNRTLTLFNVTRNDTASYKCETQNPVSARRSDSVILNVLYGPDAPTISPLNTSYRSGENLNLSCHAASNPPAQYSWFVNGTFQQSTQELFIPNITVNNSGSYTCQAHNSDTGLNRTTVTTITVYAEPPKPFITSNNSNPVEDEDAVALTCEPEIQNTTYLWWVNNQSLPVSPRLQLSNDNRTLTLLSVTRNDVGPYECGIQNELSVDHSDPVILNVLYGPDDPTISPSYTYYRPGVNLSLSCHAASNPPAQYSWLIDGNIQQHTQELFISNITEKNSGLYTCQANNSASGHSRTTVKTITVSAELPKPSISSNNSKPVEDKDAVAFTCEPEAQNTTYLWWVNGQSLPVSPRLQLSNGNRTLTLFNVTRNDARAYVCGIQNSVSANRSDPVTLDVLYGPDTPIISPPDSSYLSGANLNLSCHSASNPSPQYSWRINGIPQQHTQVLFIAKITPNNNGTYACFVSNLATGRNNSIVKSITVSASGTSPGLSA

## CC(C)C[C@H](NC(=O)CNC(=O)CNC(=O)[C@H](CCCNC(=N)N)NC(=O)[C@@H](N)CC(=O)O)C(=O)N[C@@H](Cc1c[nH]c2ccccc12)C(=O)N[C@@H](CCCCN)C(=O)N[C@H](C(=O)N1CCC[C@H]1C(=O)NCCCC[C@H](NC(=O)[C@@H]1CCCN1C(=O)[C@@H](NC(=O)[C@H](CCCCN)NC(=O)[C@H](Cc1c[nH]c2ccccc12)NC(=O)[C@H](CC(C)C)NC(=O)CNC(=O)CNC(=O)[C@H](CCCNC(=N)N)NC(=O)[C@@H](N)CC(=O)O)[C@@H](C)O)C(=O)NCCCC[C@H](NC(=O)[C@H](CCCCNC(=O)[C@@H]1CCCN1C(=O)[C@@H](NC(=O)[C@H](CCCCN)NC(=O)[C@H](Cc1c[nH]c2ccccc12)NC(=O)[C@H](CC(C)C)NC(=O)CNC(=O)CNC(=O)[C@H](CCCNC(=N)N)NC(=O)[C@@H](N)CC(=O)O)[C@@H](C)O)NC(=O)[C@@H]1CCCN1C(=O)[C@@H](NC(=O)[C@H](CCCCN)NC(=O)[C@H](Cc1c[nH]c2ccccc12)NC(=O)[C@H](CC(C)C)NC(=O)CNC(=O)CNC(=O)[C@H](CCCNC(=N)N)NC(=O)[C@@H](N)CC(=O)O)[C@@H](C)O)C(=O)NCC(=O)NCC(=O)N[C@@H](CSCC(=O)NCCCCCCNC(=O)CSC[C@H](NC(=O)CNC(=O)CNC(=O)[C@H](CCCCNC(=O)[C@H](CCCCNC(=O)[C@@H]1CCCN1C(=O)[C@@H](NC(=O)[C@H](CCCCN)NC(=O)[C@H](Cc1c[nH]c2ccccc12)NC(=O)[C@H](CC(C)C)NC(=O)CNC(=O)CNC(=O)[C@H](CCCNC(=N)N)NC(=O)[C@@H](N)CC(=O)O)[C@@H](C)O)NC(=O)[C@@H]1CCCN1C(=O)[C@@H](NC(=O)[C@H](CCCCN)NC(=O)[C@H](Cc1c[nH]c2ccccc12)NC(=O)[C@H](CC(C)C)NC(=O)CNC(=O)CNC(=O)[C@H](CCCNC(=N)N)NC(=O)[C@@H](N)CC(=O)O)[C@@H](C)O)NC(=O)[C@H](CCCCNC(=O)[C@@H]1CCCN1C(=O)[C@@H](NC(=O)[C@H](CCCCN)NC(=O)[C@H](Cc1c[nH]c2ccccc12)NC(=O)[C@H](CC(C)C)NC(=O)CNC(=O)CNC(=O)[C@H](CCCNC(=N)N)NC(=O)[C@@H](N)CC(=O)O)[C@@H](C)O)NC(=O)[C@@H]1CCCN1C(=O)[C@@H](NC(=O)[C@H](CCCCN)NC(=O)[C@H](Cc1c[nH]c2ccccc12)NC(=O)[C@H](CC(C)C)NC(=O)CNC(=O)CNC(=O)[C@H](CCCNC(=N)N)NC(=O)[C@@H](N)CC(=O)O)[C@@H](C)O)C(=O)O)C(=O)O)[C@@H](C)O [CEA-mimotope MAP]
[1]; pooled fifth immune sera of immunized mice diluted 1:50
  CDC cytotoxicity: 100%
[1]; pooled fifth immune sera of immunized mice diluted 1:100
  CDC cytotoxicity: 51%
[2]
  ADCC cytotoxicity: 50%
[3]
  cytotoxic reaction on CEA negative cells: no reaction

## C-RLALGDAKKY-C (CRLALGDAKKYC; disulfide 1-12; not fully specified; printed as C-RLALGDAKKY-C) [COL4, CEA mimotope selected from phage library with antibody Col-1]
[4]
  competition of phage-displayed mimotope with CEA for binding to Col-1: best candidate

B1: monoclonal antibody Col-1 (Zymed Lab., San Francisco, Calif.) (antibody, from another filing, V domains shown)
VH: EVQLQQSGAELVRSGASVKMSCTASGFNIKDYYMHWVKQRPEQGLEWIGWIDPENGDTEYAPKFQGKATMTTDTSSNTAYLQLSSLTSEDTAVYYCNTRGLSTMITTRWFFDVWGAGTTVAVSS
VL: DIVLTQSPASLTVSLGLRATISCRASKSVSASGYSYMHWYQQRPGQPPKLLIYLASNLQSGVPARFSGSGSGTDFTLNIHPVEEEDAATYYCQHSRELPTFGGGTKLEIK
[5]
  maximal signal (OD450-630 nm): 1.4 OD450-630 nm

— patent US20090304725A1, “Vaccine and Antigen Mimotopes Against Cancerous Diseases Associated with the Carcinoembryonic Antigen CEA” (Medizinische Universitat Wien, priority 2006, published 2009)
